Legend:
[1] = decomposition of calcium hypochlorite under ambient light; assay type: physicochemical; conditions: 200 mg/ml, 37° C., without stabilization in alginate-calcium hydrogel
Procedure: In one embodiment, the interactions of calcium hypochlorite and alginate control the release of chlorine over time, which allows prolonged and continuous exposure. Without stabilization of calcium hypochlorite in alginate-calcium hydrogel, calcium hypochlorite at a concentration of 200 mg/ml is decomposed under ambient light within 30 min at 37° C. In a composition containing 1% alginate tested at room temperature (without exposing to light), about 40-50% of chlorine was released over 2 hr test period for all calcium hypochlorite concentrations tested (FIG. 2). […] It is understood that the physical structure of the gel can take the form of particles, sheets, or appropriate structure to optimize the surface suitable for release of the active hypohalite form.

onychomycosis = conditions: topical formulations; do not penetrate the nail; cited from earlier work
[2] = system: XL-1 antibiotic resistant bacteria; conditions: 30 and 60 mg/ml, 16 hr and 40 hr
Procedure: FIGS. 11A-11D are images of agar plates seeded with XL-1 antibiotic resistant bacteria comparing the effectiveness of sodium hypochlorite (11A and 11C) and calcium hypochlorite (11B and 11D) at 16 hr (11A and 11B) and 40 hr (11C and 11D). Sodium hypochlorite (11A and 11C): 0, water; 1 30 mg/ml with alginate; 2, 60 mg/ml with alginate; 3, 60 mg/ml without alginate; 4, 30 mg/ml without alginate. Calcium hypochlorite (11B and 11D): 0, water; 1 25 mg/ml with alginate; 2, 50 mg/ml with alginate; 3, 50 mg/ml without alginate; 4, 25 mg/ml without alginate.

For `[Ca+2].[O-]Cl.[O-]Cl` [calcium hypochlorite], the time to decomposition [1] was no more than 30 min.
For `Clc1ccccc1C(c1ccccc1)(c1ccccc1)n1ccnc1` [clotrimazole], the effectiveness for onychomycosis (onychomycosis) is given as “totally ineffective”.
In the case of `CN(C/C=C/C#CC(C)(C)C)Cc1cccc2ccccc12` [terbinafine], the effectiveness for onychomycosis (onychomycosis) is given as “totally ineffective”.
With sodium chlorite the “effectiveness with vs without alginate” value [2] was “not affected by the presence of alginate”.

— US20140255476A1, “COMPOSITIONS, DEVICES, AND METHODS FOR TREATING INFECTIONS” (University of Washington through its Center for …, priority 2011, published 2014)
